Columns and labels:
Na^+,K^+ -ATPase [1] = settings: J. Med. Chem. 1978, 21, 284; Quant. Struct.-Act. Relat. 1988, 7, 160; DE 4,227,605; DE 4,227,626; cited from earlier work
[2] = J. Med. Chem. 1978, 21, 284; Quant. Struct.-Act. Relat. 1988, 7, 160; cited from earlier work
Na^+,K^+ -ATPase [3] = biological target: T1, Na^+,K^+ -ATPase (Canis lupus familiaris, UniProt P50997); assay: displacement of the specific 3H-ouabain binding from the purified Na+,K+-ATPase receptor
T1 construct: Na^+,K^+ -ATPase receptor purified according to Jorghensen; from tissue
Excerpt: (§1) To test the affinity for the receptor site of the Na^+,K^+ -ATPase and the agonist or antagonist activity on the enzyme, the following tests were used:
a) displacement of the specific ^3 H-ouabain binding from the Na^+,K^+ -ATPase receptor purified according to Jorghensen (Jorghensen P., BBA. 1974, 356, 36) and Erdmann (Erdmann E. et al., Arzneim. Forsh., 1984, 34, 1314);

Na^+,K^+ -ATPase [4] = biological target: T1, Na^+,K^+ -ATPase; assay: inhibition of the activity of the purified Na+,K+-ATPase (% hydrolysis of 32P-ATP); type: biochemical
Excerpt: as §1
b) inhibition of the activity of the purified Na^+,K^+ -ATPase measured as % of hydrolysis of ^32 P-ATP in presence and in absence of the tested compound (Doucet A. et al. Am. J. Physiol., 1986, 251, F851)

[5] = 3H-ouabain displacement, purified Na+,K+-ATPase, read-out: Binding ^3 H-Ouab. Displacement log IC50 (converted)
[6] = purified Na+,K+-ATPase, 32P-ATP hydrolysis, read-out: Inhibitory Activity log IC50 (converted)

C[C@]12CC[C@H](O)C[C@H]1CC[C@@H]1[C@@H]2CC[C@]2(C)C(=NNC(=N)N)CC[C@]12O [17-guanidinoimino-5β-androstane-3β,14β-diol]
inhibition of Na+,K+-ATPase (in words) (Na^+,K^+ -ATPase [1]): weak inhibitors of Na^+,K^+ -ATPase
positive inotropic activity (in words) [2]: weak positive inotropic agents

CC(/C=N/NC1=NCCN1)=C\[C@H]1CC[C@]2(O)[C@@H]3CC[C@@H]4C[C@@H](O)CC[C@]4(C)[C@H]3CC[C@]12C [Comp. I-ab, (E,E)-17β-[3-(2-Imidazolin-2-yl)hydrazono-2-methyl-1-propenyl]-5β-androstane-3β,14β-diol]
IC50 (Na^+,K^+ -ATPase [3]; [5]): 63.1 nM
IC50 (Na^+,K^+ -ATPase [4]; [6]): 3160 nM

CC(/C=N/NC1=NCCN1C)=C\[C@H]1CC[C@]2(O)[C@@H]3CC[C@@H]4C[C@@H](O)CC[C@]4(C)[C@H]3CC[C@]12C [Comp. I-ac, (E,E)-17β-[3-(1-Methyl-2-imidazolin-2-yl)hydrazono-2-methyl-1-propenyl]-5β-androstane-3β,14β-diol]
IC50 (Na^+,K^+ -ATPase [3]; [5]): 316 nM
IC50 (Na^+,K^+ -ATPase [4]): 3980 nM

CC(/C=N/NC1=NCCCN1)=C\[C@H]1CC[C@]2(O)[C@@H]3CC[C@@H]4C[C@@H](O)CC[C@]4(C)[C@H]3CC[C@]12C [Comp. I-ad, (E,E)-17β-[3-(1,4,5,6-Tetrahydro-2-pyrimidinyl)hydrazono-2-methyl-1-propenyl]-5β-androstane-3β,14β-diol]
IC50 (Na^+,K^+ -ATPase [3]; [5]): 63.1 nM
IC50 (Na^+,K^+ -ATPase [4]): 2510 nM

CC(/C=N/NC(=N)NCCN(C)C)=C\[C@H]1CC[C@]2(O)[C@@H]3CC[C@@H]4C[C@@H](O)CC[C@]4(C)[C@H]3CC[C@]12C [Comp. I-ae, (E,E)-17β-{3-[3-(2-Dimethylaminoethyl)guanidinoimino]-2-methyl-1-propenyl}-5β-androstane-3β,14β-diol]
IC50 (Na^+,K^+ -ATPase [3]): 501 nM
IC50 (Na^+,K^+ -ATPase [4]): 6310 nM

CC(/C=N/OCCCN)=C\[C@H]1CC[C@]2(O)[C@@H]3CC[C@@H]4C[C@@H](O)CC[C@]4(C)[C@H]3CC[C@]12C [Comp. I-ag]
IC50 (Na^+,K^+ -ATPase [3]; [5]): 25.1 nM
IC50 (Na^+,K^+ -ATPase [4]; [6]): 50.1 nM

CC(/C=N/OCCN(C)C)=C\[C@H]1CC[C@]2(O)[C@@H]3CC[C@@H]4C[C@@H](O)CC[C@]4(C)[C@H]3CC[C@]12C [Comp. I-ah, (E,E)-17β-[3-(2-Dimethylaminoethoxyimino)-2-methyl-1-propenyl]-5β-androstane-3β,14β-diol]
IC50 (Na^+,K^+ -ATPase [3]; [5]): 20 nM
IC50 (Na^+,K^+ -ATPase [4]; [6]): 63.1 nM

CC(/C=N/OCCCN(C)C)=C\[C@H]1CC[C@]2(O)[C@@H]3CC[C@@H]4C[C@@H](O)CC[C@]4(C)[C@H]3CC[C@]12C [Comp. I-ai, (E,E)-17β-[3-(3-Dimethylaminopropoxyimino)-2-methyl-1-propenyl]-5β-androstane-3β,14β-diol]
IC50 (Na^+,K^+ -ATPase [3]; [5]): 31.6 nM
IC50 (Na^+,K^+ -ATPase [4]; [6]): 63.1 nM

CC(/C=N/OCCNC(=N)N)=C\[C@H]1CC[C@]2(O)[C@@H]3CC[C@@H]4C[C@@H](O)CC[C@]4(C)[C@H]3CC[C@]12C [Comp. I-aj, (E,E)-17β-[3-(2-Guanidinoethoxyimino)-2-methyl-1-propenyl]-5β-androstane-3β,14β-diol]
IC50 (Na^+,K^+ -ATPase [3]): 50.1 nM
IC50 (Na^+,K^+ -ATPase [4]; [6]): 126 nM

CC(/C=N/OCCCNC(=N)N)=C\[C@H]1CC[C@]2(O)[C@@H]3CC[C@@H]4C[C@@H](O)CC[C@]4(C)[C@H]3CC[C@]12C [Comp. I-ak, (E,E)-17β-[3-(3-Guanidinopropoxyimino)-2-methyl-1-propenyl]-5β-androstane-3β,14β-diol]
IC50 (Na^+,K^+ -ATPase [3]; [5]): 63.1 nM
IC50 (Na^+,K^+ -ATPase [4]): 200 nM

CCC(/C=N/NC(=N)N)=C\[C@H]1CC[C@]2(O)[C@@H]3CC[C@@H]4C[C@@H](O)CC[C@]4(C)[C@H]3CC[C@]12C [Comp. I-al, (E,E)-17β-(3-Guanidinoimino-2-ethyl-1-propenyl)-5β-androstane-3β,14β-diol]
IC50 (Na^+,K^+ -ATPase [3]): 126 nM
IC50 (Na^+,K^+ -ATPase [4]): 1000 nM

CCC(/C=N/OCCN)=C\[C@H]1CC[C@]2(O)[C@@H]3CC[C@@H]4C[C@@H](O)CC[C@]4(C)[C@H]3CC[C@]12C [Comp. I-am, (E,E)-17β-[3-(2-Aminoethoxyimino)-2-ethyl-1-propenyl]-5β-androstane-3β,14β-diol]
IC50 (Na^+,K^+ -ATPase [3]; [5]): 63.1 nM
IC50 (Na^+,K^+ -ATPase [4]; [6]): 126 nM

CCC(/C=N/OCCCN)=C\[C@H]1CC[C@]2(O)[C@@H]3CC[C@@H]4C[C@@H](O)CC[C@]4(C)[C@H]3CC[C@]12C [Comp. I-an, (E,E)-17β-[3-(3-Aminopropoxyimino)-2-ethyl-1-propenyl]-5β-androstane-3β,14β-diol]
IC50 (Na^+,K^+ -ATPase [3]): 100 nM
IC50 (Na^+,K^+ -ATPase [4]; [6]): 316 nM

CCC(/C=N/OCCN(C)C)=C\[C@H]1CC[C@]2(O)[C@@H]3CC[C@@H]4C[C@@H](O)CC[C@]4(C)[C@H]3CC[C@]12C [Comp. I-ao, (E,E)-17β-[3-(2-Dimethylaminoethoxyimino)-2-ethyl-1-propenyl]-5β-androstane-3β,14β-diol]
IC50 (Na^+,K^+ -ATPase [3]): 126 nM
IC50 (Na^+,K^+ -ATPase [4]; [6]): 501 nM

CCC(/C=N/OCCCN(C)C)=C\[C@H]1CC[C@]2(O)[C@@H]3CC[C@@H]4C[C@@H](O)CC[C@]4(C)[C@H]3CC[C@]12C [Comp. I-ap, (E,E)-17β-[3-(3-Dimethylaminopropoxyimino)-2-ethyl-1-propenyl]-5β-androstane-3β,14β-diol]
IC50 (Na^+,K^+ -ATPase [3]): 200 nM
IC50 (Na^+,K^+ -ATPase [4]; [6]): 631 nM

CC(/C=N/NC(=N)N)=C\[C@@]1(O)CC[C@]2(O)[C@@H]3CC[C@@H]4C[C@@H](O)CC[C@]4(C)[C@H]3CC[C@]12C [Comp. I-aq, (E,E)-17β-(3-Guanidinoimino-2-methyl-1-propenyl]-5β-androstane-3β,14β,17α-triol]
IC50 (Na^+,K^+ -ATPase [3]; [5]): 398 nM
IC50 (Na^+,K^+ -ATPase [4]): 3980 nM

CC(/C=N/OCCN)=C\[C@@]1(O)CC[C@]2(O)[C@@H]3CC[C@@H]4C[C@@H](O)CC[C@]4(C)[C@H]3CC[C@]12C [Comp. I-ar, (E,E)-17β-[3-(2-Aminoethoxyimino)-2-methyl-1-propenyl]-5β-androstane-3β,14β,17α-triol]
IC50 (Na^+,K^+ -ATPase [3]; [5]): 316 nM
IC50 (Na^+,K^+ -ATPase [4]): 2510 nM

CC(/C=N/OCCN(C)C)=C\[C@@]1(O)CC[C@]2(O)[C@@H]3CC[C@@H]4C[C@@H](O)CC[C@]4(C)[C@H]3CC[C@]12C [Comp. I-as, (E,E)-17β-[3-(2-Dimethylaminoethoxyimino)-2-methyl-1-propenyl]-5β-androstane-3β,14β,17α-triol]
IC50 (Na^+,K^+ -ATPase [3]; [5]): 398 nM
IC50 (Na^+,K^+ -ATPase [4]): 3160 nM

CC(/C=N/NC(=N)N)=C\[C@H]1CC[C@]2(O)[C@@H]3CC[C@@H]4C[C@@H](OCCN5CCCC5)CC[C@]4(C)[C@H]3CC[C@]12C [Comp. I-at, (E,E)-36-[2-(1-Pyrrolidinyl)ethoxy]-17β-(3-guanidinoimino-2-methyl-1-propenyl]-5β-androstane-14β-ol]
IC50 (Na^+,K^+ -ATPase [3]): 39.8 nM
IC50 (Na^+,K^+ -ATPase [4]; [6]): 158 nM

CC(/C=N/OCCN)=C\[C@H]1CC[C@]2(O)[C@@H]3CC[C@@H]4C[C@@H](OCCN5CCCC5)CC[C@]4(C)[C@H]3CC[C@]12C [Comp. I-au]
IC50 (Na^+,K^+ -ATPase [3]; [5]): 20 nM
IC50 (Na^+,K^+ -ATPase [4]; [6]): 39.8 nM

CC(/C=N/NC(=N)N)=C\[C@H]1CC[C@]2(O)[C@@H]3CC[C@@H]4C[C@@H](OCCCN5CCCC5)CC[C@]4(C)[C@H]3CC[C@]12C [Comp. I-av]
IC50 (Na^+,K^+ -ATPase [3]): 50.1 nM
IC50 (Na^+,K^+ -ATPase [4]; [6]): 200 nM

CC(/C=N/OCCN)=C\[C@H]1CC[C@]2(O)[C@@H]3CC[C@@H]4C[C@@H](OCC(C)N5CCCC5)CC[C@]4(C)[C@H]3CC[C@]12C (stereo partly drawn) [Comp. I-aw, (E,E)-3β-[2-(1-Pyrrolidinyl)propoxy]-17β-[3-(2-aminoethoxyimino)-2-methyl-1-propenyl]-5β-androstane-14β-ol]
IC50 (Na^+,K^+ -ATPase [3]; [5]): 25.1 nM
IC50 (Na^+,K^+ -ATPase [4]; [6]): 63.1 nM

CC(/C=N/OCCN)=C\[C@H]1CC[C@]2(O)[C@@H]3CC[C@@H]4C[C@@H](OCCN)CC[C@]4(C)[C@H]3CC[C@]12C [Comp. I-ay, (E,E)-3β-(2-Aminoethoxy)-17β-[3-(2-aminoethoxyimino)-2-methyl-1-propenyl]-5β-androstane-14β-ol]
IC50 (Na^+,K^+ -ATPase [3]; [5]): 25.1 nM
IC50 (Na^+,K^+ -ATPase [4]; [6]): 31.6 nM

CC(/C=N/NC(=N)N)=C\[C@H]1CC[C@]2(O)[C@@H]3CC[C@@H]4C[C@@H](OCCCN)CC[C@]4(C)[C@H]3CC[C@]12C [Comp. I-az]
IC50 (Na^+,K^+ -ATPase [3]; [5]): 25.1 nM
IC50 (Na^+,K^+ -ATPase [4]; [6]): 31.6 nM

CC(/C=N/OCCN)=C\[C@H]1CC[C@]2(O)[C@@H]3CC[C@@H]4C[C@@H](OCCCN)CC[C@]4(C)[C@H]3CC[C@]12C [Comp. I-ba]
IC50 (Na^+,K^+ -ATPase [3]; [5]): 20 nM
IC50 (Na^+,K^+ -ATPase [4]; [6]): 39.8 nM

CC(/C=N/NC(=N)N)=C\[C@H]1CC[C@]2(O)[C@@H]3CC[C@@H]4C[C@H](O)CC[C@]4(C)[C@H]3CC[C@]12C [Comp. I-bb, (E,E)-17β-(3-Guanidinoimino-2-methyl-1-propenyl)-5β-androstane-3α,14β-diol]
IC50 (Na^+,K^+ -ATPase [3]): 631 nM
IC50 (Na^+,K^+ -ATPase [4]): 3160 nM

CC(/C=N/OCCN)=C\[C@H]1CC[C@]2(O)[C@@H]3CC[C@@H]4C[C@H](O)CC[C@]4(C)[C@H]3CC[C@]12C [Comp. I-bc, (E,E)-17β-[3-(2-Aminoethoxyimino)-2-methyl-1-propenyl]-5β-androstane-3α,14β-diol]
IC50 (Na^+,K^+ -ATPase [3]): 501 nM
IC50 (Na^+,K^+ -ATPase [4]): 2510 nM

CC(/C=N/OCCN)=C\[C@H]1CC[C@]2(O)[C@@H]3CC[C@@H]4C[C@H](OCCN5CCCC5)CC[C@]4(C)[C@H]3CC[C@]12C [Comp. I-bd]
IC50 (Na^+,K^+ -ATPase [3]): 501 nM
IC50 (Na^+,K^+ -ATPase [4]): 3160 nM

CC(/C=N/OCCN)=C\[C@H]1CC[C@]2(O)[C@@H]3CC[C@@H]4C[C@H](OCCCN)CC[C@]4(C)[C@H]3CC[C@]12C [Comp. I-be, (E,E)-3α-(3-Aminopropoxy)-17β-[3-(2-aminoethoxyimino)-2-methyl-1-propenyl]-5β-androstane-14β-ol]
IC50 (Na^+,K^+ -ATPase [3]): 631 nM
IC50 (Na^+,K^+ -ATPase [4]): 3980 nM

CC(/C=N/NC(=N)N)=C\[C@H]1CC[C@]2(O)[C@@H]3CC[C@@H]4C[C@@H](OCCN)CC[C@]4(C)[C@H]3CC[C@]12C [I-ax]
IC50 (Na^+,K^+ -ATPase [3]; [5]): 25.1 nM
IC50 (Na^+,K^+ -ATPase [4]; [6]): 39.8 nM
